# Measured values published in article PMC8070745, “FEN1 Blockade for Platinum Chemo-Sensitization and Synthetic Lethality in Epithelial Ovarian Cancers” (Cancers, 2021).
# Tests used:
# POLβ KO A2780cis cells = experiment: Clonogenic assay, POLβ KO A2780cis; type: cell-based, human; settings: vs POLβ proficient A2780cis
# Experimental: Clonogenic assay: In the clonogenic assay (colony formation assays), 32 cells/cm2 were seeded in 6-well plates and left at 37°C in a 5% CO2 atmosphere. Cisplatin (5µM) and/or FEN1i (10µM) and/or Importazole (5 µM, Selleckem, S8446 ) were added at the indicated concentrations and the plates were left at 37 °C in a 5% CO 2 atmosphere for 14 days. Later, the plates were washed with PBS, fixed and stained with a crystal violet, acetic acid and methanol solution and colonies were counted. […]
# PEO1 spheroids = experiment: 3D spheroid assay, PEO1; type: cell-based, human; settings: PEO1 spheroids vs PEO4 spheroids
# Experimental: with ice cold PBS and fixed in 70% ethanol for 1h at -20°C. After removal of the fixative solution by centrifugation, cells were stained with 2 µg/ml of phospho-Histone (γH2AX) Ser139 (16202A, Millipore, UK) to detect DSBs.
# Cell cycle progression: Cells were treated with 20 µg/ml RNase A (12091021, Invitrogen) and then 10 µg/ml Propidium Iodide (P4170, Sigma Aldrich) was added to determine the cell cycle distribution. The samples were analysed on a Beckman-Coulter FC500 flow cytometer using a 488nm laser for excitation and emission data for PI collected using a 620nm bandpass filter (FL3) and a 525nm bandpass filter (FL1) for FITC-anti-phospho-Histone H2A.X.
# Apoptosis detection: Annexin V detection kit (556547, BD Biosciences) was used to quantify apoptotic cells. Briefly, cells were trypsinized, washed with PBS and the cellular pellet was re-suspended in Anexin Binding Buffer (1×). […] All the samples were analysed on a Beckman-Coulter FC500 flow cytometer. The percentage of apoptotic cells was determined (late apoptotic = FITC-Annexin V positive, PI positive early apoptotic = FITC-Annexin V positive, PI negative; live cells = FITC-Annexin V negative, PI negative) and compared for untreated and treated samples. […]
# To quantify cell viability, LIVE/DEAD Viability/Cytotoxicity Kit (L3224, Thermo Fisher Scientific) was used. […] At least 10 spheroids were measured. […]
structure (smiles),measurement,setting,value
"Cc1csc2c1c(=O)n(O)c(=O)n2-c1ccccc1 [PTPD, 3-hydroxy-5-methyl-1-phenylthieno [2,3 d]pyrimidine-2,4(1H,3H)-dione]",sensitivity to FEN1 inhibitor,POLβ KO A2780cis cells,more sensitive to FEN1 inhibition
same,spheroid sensitivity to FEN1 inhibitor,PEO1 spheroids,hypersensitive to FEN1 inhibition
